Activity calls are given as the source filed them.
Experiments:
[1] = target: ATP-dependent RNA helicase DDX3X (Homo sapiens, UniProt O00571)
[2] = target: cAMP-dependent protein kinase catalytic subunit gamma (Homo sapiens, UniProt P22612)
[3] = target: T1, Exosome RNA helicase MTR4 (Homo sapiens, UniProt P42285)
T1 sequence (P42285 whole entry): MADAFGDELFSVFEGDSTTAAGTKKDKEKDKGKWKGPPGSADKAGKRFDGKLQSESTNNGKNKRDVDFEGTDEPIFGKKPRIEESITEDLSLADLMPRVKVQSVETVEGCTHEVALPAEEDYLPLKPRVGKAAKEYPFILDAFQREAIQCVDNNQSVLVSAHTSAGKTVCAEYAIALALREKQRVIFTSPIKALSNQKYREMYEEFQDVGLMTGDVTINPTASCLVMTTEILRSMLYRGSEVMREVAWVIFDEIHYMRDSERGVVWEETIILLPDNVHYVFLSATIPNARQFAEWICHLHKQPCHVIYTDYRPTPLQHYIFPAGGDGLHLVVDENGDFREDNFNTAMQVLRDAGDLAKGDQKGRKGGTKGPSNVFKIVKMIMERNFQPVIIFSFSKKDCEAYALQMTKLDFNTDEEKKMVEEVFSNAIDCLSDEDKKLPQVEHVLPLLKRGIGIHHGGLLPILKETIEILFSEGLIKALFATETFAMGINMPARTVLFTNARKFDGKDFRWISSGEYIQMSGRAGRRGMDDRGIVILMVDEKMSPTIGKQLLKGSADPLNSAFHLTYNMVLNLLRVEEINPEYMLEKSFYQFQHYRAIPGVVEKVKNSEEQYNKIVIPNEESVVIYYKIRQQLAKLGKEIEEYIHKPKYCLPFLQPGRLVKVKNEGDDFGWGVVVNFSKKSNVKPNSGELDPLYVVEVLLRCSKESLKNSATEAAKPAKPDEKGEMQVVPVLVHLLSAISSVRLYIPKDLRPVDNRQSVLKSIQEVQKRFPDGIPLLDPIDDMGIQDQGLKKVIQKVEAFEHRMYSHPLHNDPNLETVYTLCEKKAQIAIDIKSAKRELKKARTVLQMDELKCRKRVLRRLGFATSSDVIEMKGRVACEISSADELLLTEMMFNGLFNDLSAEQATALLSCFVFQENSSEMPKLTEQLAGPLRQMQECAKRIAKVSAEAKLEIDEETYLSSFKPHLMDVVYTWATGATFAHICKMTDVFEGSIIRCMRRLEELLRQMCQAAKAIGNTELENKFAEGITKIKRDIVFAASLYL

Myosin-10 = Myosin-10 (Homo sapiens, UniProt P35580)
[4] = target: Cyclin-dependent kinase 12 (Homo sapiens, UniProt Q9NYV4)
Sequence of Cyclin-dependent kinase 12 (Q9NYV4 whole entry): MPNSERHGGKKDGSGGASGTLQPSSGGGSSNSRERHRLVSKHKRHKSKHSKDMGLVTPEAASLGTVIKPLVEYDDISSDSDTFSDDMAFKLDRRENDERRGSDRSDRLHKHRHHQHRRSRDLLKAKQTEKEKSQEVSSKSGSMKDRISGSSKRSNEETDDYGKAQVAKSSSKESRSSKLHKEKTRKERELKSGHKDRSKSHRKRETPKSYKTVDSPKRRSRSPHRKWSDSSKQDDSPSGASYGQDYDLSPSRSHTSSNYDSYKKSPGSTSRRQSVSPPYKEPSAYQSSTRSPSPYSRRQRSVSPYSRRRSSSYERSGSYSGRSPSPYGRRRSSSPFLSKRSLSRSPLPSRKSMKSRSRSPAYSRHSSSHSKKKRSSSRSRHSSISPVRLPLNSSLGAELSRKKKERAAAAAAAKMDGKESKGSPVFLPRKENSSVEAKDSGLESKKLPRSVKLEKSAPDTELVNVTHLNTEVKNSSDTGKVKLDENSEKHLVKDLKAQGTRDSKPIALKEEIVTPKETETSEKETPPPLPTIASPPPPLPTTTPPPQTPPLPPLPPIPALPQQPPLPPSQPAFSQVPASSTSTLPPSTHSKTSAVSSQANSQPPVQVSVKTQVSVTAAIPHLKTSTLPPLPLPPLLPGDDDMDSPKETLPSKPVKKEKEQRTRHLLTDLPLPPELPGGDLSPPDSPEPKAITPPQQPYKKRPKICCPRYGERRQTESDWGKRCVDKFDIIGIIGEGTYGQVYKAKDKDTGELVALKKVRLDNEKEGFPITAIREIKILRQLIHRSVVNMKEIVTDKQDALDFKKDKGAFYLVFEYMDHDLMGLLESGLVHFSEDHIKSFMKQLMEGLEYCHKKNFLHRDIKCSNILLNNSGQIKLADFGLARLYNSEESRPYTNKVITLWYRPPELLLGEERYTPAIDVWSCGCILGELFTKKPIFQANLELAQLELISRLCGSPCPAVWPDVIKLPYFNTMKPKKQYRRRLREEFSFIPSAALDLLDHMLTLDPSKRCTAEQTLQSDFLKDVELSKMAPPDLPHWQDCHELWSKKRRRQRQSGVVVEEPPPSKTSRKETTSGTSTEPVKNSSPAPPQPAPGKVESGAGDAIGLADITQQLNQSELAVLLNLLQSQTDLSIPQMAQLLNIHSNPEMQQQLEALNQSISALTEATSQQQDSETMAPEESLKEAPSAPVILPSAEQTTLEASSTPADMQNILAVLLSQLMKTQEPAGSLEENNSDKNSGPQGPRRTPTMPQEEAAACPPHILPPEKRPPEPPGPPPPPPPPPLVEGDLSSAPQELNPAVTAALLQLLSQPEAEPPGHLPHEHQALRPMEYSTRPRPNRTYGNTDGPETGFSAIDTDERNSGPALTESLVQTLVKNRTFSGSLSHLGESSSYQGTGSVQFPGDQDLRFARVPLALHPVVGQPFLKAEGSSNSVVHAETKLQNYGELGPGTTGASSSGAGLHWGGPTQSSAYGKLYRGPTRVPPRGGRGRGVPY

[5] = target: Mitogen-activated protein kinase 1 (Homo sapiens, UniProt P28482)
[6] = target: Casein kinase II subunit alpha' (Homo sapiens, UniProt P19784)
Sequence of Casein kinase II subunit alpha' (P19784 whole entry, the tested form may be a part): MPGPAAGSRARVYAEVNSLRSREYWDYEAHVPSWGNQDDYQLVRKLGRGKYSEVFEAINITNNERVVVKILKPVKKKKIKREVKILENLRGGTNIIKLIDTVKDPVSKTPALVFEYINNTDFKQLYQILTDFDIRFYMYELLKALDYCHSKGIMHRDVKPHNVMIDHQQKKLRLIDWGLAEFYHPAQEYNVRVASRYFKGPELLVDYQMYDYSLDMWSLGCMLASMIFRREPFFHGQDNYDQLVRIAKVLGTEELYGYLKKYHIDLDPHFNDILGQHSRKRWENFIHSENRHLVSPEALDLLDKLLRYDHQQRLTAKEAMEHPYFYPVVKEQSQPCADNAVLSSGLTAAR

LIM domain kinase 1 = LIM domain kinase 1 (Homo sapiens, UniProt P53667)
Sequence of LIM domain kinase 1 (P53667 whole entry, the tested form may be a part): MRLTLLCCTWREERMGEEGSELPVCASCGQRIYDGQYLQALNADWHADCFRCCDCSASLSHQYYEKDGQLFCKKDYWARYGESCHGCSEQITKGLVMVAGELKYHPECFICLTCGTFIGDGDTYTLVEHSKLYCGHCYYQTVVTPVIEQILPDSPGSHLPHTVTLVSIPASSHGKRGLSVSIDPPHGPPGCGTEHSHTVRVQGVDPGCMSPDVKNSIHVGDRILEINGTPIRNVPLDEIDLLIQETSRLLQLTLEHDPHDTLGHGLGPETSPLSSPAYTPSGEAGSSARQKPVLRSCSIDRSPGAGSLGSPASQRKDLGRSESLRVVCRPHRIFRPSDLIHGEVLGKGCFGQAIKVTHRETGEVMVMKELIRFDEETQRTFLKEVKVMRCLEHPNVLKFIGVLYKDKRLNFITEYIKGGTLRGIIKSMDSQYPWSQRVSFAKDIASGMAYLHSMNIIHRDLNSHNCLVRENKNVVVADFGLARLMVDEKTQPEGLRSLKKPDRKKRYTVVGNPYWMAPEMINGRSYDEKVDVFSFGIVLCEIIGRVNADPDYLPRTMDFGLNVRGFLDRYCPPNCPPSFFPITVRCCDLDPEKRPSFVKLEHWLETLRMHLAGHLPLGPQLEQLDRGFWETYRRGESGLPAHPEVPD

TGF-beta receptor type-2 = TGF-beta receptor type-2 (Homo sapiens, UniProt P37173)
Sequence of TGF-beta receptor type-2 (P37173 whole entry): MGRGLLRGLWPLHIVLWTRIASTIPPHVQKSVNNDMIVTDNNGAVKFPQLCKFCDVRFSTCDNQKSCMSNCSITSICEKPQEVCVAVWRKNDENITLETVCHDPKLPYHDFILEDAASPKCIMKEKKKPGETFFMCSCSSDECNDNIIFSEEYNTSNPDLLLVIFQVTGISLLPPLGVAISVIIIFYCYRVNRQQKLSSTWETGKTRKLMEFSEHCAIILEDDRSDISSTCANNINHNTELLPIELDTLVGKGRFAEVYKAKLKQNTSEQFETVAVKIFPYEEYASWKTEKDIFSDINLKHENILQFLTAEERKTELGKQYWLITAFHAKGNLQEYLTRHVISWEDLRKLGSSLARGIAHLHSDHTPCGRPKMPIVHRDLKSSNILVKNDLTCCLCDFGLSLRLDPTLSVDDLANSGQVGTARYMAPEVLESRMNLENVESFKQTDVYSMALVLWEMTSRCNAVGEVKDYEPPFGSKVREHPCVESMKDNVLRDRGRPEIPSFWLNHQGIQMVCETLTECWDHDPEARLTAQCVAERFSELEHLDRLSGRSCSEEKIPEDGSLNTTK

[7] = target: T2, Membrane-associated tyrosine- and threonine-specific cdc2-inhibitory kinase (Homo sapiens, UniProt Q99640)
T2 sequence (Q99640 whole entry): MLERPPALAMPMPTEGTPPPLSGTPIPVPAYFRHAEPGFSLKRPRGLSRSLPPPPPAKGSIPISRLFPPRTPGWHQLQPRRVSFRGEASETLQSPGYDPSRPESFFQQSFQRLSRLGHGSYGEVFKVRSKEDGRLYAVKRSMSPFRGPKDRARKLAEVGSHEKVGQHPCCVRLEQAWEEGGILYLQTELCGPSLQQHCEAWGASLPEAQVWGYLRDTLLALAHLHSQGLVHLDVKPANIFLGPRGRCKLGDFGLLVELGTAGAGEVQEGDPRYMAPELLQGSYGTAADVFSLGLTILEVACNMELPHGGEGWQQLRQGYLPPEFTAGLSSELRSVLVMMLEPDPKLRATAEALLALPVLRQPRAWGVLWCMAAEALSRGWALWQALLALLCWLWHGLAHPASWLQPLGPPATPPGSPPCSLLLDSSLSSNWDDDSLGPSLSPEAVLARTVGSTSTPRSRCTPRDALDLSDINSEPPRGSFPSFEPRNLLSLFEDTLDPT

[8] = target: AP2-associated protein kinase 1 (Homo sapiens, UniProt Q2M2I8)
[9] = target: Serine/threonine-protein kinase SIK2 (Homo sapiens, UniProt Q9H0K1)
Sequence of Serine/threonine-protein kinase SIK2 (Q9H0K1 whole entry): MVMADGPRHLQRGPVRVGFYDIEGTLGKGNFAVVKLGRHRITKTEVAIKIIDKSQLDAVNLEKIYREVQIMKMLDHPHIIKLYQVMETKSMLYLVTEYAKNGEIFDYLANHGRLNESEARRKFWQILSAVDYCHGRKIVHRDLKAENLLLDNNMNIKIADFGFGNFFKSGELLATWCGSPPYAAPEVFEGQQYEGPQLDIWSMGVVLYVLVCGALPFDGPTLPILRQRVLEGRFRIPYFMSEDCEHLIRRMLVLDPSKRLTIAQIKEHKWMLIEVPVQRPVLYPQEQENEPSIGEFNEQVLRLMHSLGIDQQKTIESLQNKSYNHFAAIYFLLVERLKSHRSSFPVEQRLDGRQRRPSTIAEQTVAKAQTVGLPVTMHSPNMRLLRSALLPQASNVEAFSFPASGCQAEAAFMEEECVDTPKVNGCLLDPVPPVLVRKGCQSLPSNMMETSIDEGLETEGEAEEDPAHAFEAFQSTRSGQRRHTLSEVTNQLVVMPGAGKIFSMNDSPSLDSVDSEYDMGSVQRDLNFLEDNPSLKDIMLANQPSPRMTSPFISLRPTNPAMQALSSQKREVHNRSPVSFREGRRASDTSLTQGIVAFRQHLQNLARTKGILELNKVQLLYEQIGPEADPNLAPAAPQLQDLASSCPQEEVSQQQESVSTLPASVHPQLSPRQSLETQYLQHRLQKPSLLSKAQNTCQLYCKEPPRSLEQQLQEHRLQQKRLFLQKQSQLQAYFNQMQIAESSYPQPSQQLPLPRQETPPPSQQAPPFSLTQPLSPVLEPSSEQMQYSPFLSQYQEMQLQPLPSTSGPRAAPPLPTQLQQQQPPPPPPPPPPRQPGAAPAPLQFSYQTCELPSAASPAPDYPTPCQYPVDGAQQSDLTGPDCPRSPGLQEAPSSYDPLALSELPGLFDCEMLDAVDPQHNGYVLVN

[10] = target: Tyrosine-protein kinase BTK (Homo sapiens, UniProt Q06187)
Sequence of Tyrosine-protein kinase BTK (Q06187 whole entry): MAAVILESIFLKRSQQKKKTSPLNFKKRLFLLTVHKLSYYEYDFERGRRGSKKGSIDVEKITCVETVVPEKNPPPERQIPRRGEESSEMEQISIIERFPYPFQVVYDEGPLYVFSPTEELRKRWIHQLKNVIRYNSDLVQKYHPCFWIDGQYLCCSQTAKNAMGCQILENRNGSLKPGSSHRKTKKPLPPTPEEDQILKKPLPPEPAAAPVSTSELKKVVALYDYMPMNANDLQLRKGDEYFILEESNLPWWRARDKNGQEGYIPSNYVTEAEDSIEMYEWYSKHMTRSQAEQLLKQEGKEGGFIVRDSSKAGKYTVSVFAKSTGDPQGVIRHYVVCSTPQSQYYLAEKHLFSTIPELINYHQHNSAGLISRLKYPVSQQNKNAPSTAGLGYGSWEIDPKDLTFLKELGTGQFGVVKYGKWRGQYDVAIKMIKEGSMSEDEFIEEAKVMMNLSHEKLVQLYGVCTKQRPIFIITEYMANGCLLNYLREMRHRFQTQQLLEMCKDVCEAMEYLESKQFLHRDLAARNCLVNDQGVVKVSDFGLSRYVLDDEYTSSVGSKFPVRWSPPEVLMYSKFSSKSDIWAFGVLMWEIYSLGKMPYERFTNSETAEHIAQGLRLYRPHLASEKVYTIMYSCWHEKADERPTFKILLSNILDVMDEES

Insulin receptor = Insulin receptor (Homo sapiens, UniProt P06213)
Note: in the data inactive means no Kd found up to 30 µM.

Sequence of cAMP-dependent protein kinase catalytic subunit gamma (P22612 whole entry): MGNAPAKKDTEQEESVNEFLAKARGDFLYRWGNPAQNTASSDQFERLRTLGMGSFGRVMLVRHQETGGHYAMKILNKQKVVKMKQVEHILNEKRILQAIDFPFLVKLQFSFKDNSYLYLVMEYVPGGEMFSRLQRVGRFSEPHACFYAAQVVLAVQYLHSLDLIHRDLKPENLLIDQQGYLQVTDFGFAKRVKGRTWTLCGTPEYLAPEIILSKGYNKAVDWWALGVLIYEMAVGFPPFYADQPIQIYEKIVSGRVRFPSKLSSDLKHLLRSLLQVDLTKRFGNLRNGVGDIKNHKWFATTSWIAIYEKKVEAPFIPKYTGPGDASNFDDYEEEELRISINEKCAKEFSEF

Compound | Kd [1] | Kd [2] | Kd [3] | Kd (Myosin-10) | Kd [4] | Kd [5] | Kd [6] | Kd (LIM domain kinase 1) | Kd (TGF-beta receptor type-2) | Kd [7] | Kd [8] | Kd [9] | Kd [10] | Kd (Insulin receptor)
Cn1cc(C2=C(c3cn(C4CCN(Cc5ccccn5)CC4)c4ccccc34)C(=O)NC2=O)c2ccccc21 [ENZASTAURIN] | > 30 µM (inactive) | > 30 µM (inactive) | > 30 µM (inactive) | > 30 µM (inactive) | > 30 µM (inactive) | – | – | – | – | – | – | – | – | –
CCn1cc(-c2ccnc3[nH]c(-c4cccc(CN(C)C)c4)cc23)c(-c2ccc(NC(=O)N(C)C)cc2)n1 [GSK-1070916] | > 30 µM (inactive) | – | > 30 µM (inactive) | > 30 µM (inactive) | > 30 µM (inactive) | > 30 µM (inactive) | > 30 µM (inactive) | > 30 µM (inactive) | > 30 µM (inactive) | > 30 µM (inactive) | > 30 µM (inactive) | 0.685 µM (active) | – | –
COc1cc2ncnc(Oc3cccc(NC(=O)Nc4cc(C(C)(C)C(F)(F)F)on4)c3)c2cc1OC [CEP-32496] | > 30 µM (inactive) | – | > 30 µM (inactive) | > 30 µM (inactive) | > 30 µM (inactive) | > 30 µM (inactive) | > 30 µM (inactive) | > 30 µM (inactive) | > 30 µM (inactive) | > 30 µM (inactive) | > 30 µM (inactive) | > 30 µM (inactive) | > 30 µM (inactive) | –
N#CC[C@H](C1CCCC1)n1cc(-c2ncnc3[nH]ccc23)cn1 [RUXOLITINIB] | > 30 µM (inactive) | > 30 µM (inactive) | > 30 µM (inactive) | > 30 µM (inactive) | > 30 µM (inactive) | – | – | – | – | – | – | – | – | –
Cn1ncc(Cl)c1-c1cc(C(=O)N[C@H](CN)Cc2ccc(F)c(F)c2)oc1Cl [UPROSERTIB] | > 30 µM (inactive) | > 30 µM (inactive) | > 30 µM (inactive) | > 30 µM (inactive) | > 30 µM (inactive) | > 30 µM (inactive) | > 30 µM (inactive) | > 30 µM (inactive) | – | > 30 µM (inactive) | > 30 µM (inactive) | > 30 µM (inactive) | > 30 µM (inactive) | > 30 µM (inactive)
CC(=O)NCC(=O)N1[C@@H]2CC[C@H]1c1ccc(Nc3ncc(C(F)(F)F)c(NC4CCC4)n3)cc12 [PF-03814735] | > 30 µM (inactive) | > 30 µM (inactive) | > 30 µM (inactive) | > 30 µM (inactive) | > 30 µM (inactive) | – | 2.64 µM (active) | – | > 30 µM (inactive) | > 30 µM (inactive) | 0.009 µM (active) | 0.011 µM (active) | – | –
Cc1[nH]c(/C=C2\C(=O)Nc3ccccc32)c(C)c1CCC(=O)O [ORANTINIB] | > 30 µM (inactive) | – | > 30 µM (inactive) | > 30 µM (inactive) | > 30 µM (inactive) | – | 2.1 µM (active) | – | > 30 µM (inactive) | > 30 µM (inactive) | 1.17 µM (active) | > 30 µM (inactive) | – | –
CNC(=O)c1ccccc1Sc1ccc2c(/C=C/c3ccccn3)n[nH]c2c1 [AXITINIB] | > 30 µM (inactive) | > 30 µM (inactive) | > 30 µM (inactive) | > 30 µM (inactive) | > 30 µM (inactive) | – | – | – | – | – | – | – | – | –
Nc1ncnc2c1c(-c1cccc(OCc3ccccc3)c1)cn2[C@H]1C[C@@H](CN2CCC2)C1 [AEW-541] | > 30 µM (inactive) | > 30 µM (inactive) | > 30 µM (inactive) | – | > 30 µM (inactive) | > 30 µM (inactive) | > 30 µM (inactive) | > 30 µM (inactive) | > 30 µM (inactive) | > 30 µM (inactive) | > 30 µM (inactive) | > 30 µM (inactive) | > 30 µM (inactive) | 4.04 µM (active)
C[C@@H](Oc1cc(-n2cnc3ccc(CN4CCN(C)CC4)cc32)sc1C(N)=O)c1ccccc1C(F)(F)F [GSK-461364] | > 30 µM (inactive) | – | > 30 µM (inactive) | > 30 µM (inactive) | > 30 µM (inactive) | – | – | – | – | – | – | – | – | –
Cn1cnc2c(F)c(Nc3ccc(Br)cc3F)c(C(=O)NOCCO)cc21 [BINIMETINIB] | > 30 µM (inactive) | > 30 µM (inactive) | > 30 µM (inactive) | – | > 30 µM (inactive) | > 30 µM (inactive) | > 30 µM (inactive) | > 30 µM (inactive) | > 30 µM (inactive) | > 30 µM (inactive) | > 30 µM (inactive) | > 30 µM (inactive) | > 30 µM (inactive) | > 30 µM (inactive)
O=c1[nH]ccc2cc(OC3CCNCC3)ccc12 [SAR-407899 FREE BASE] | > 30 µM (inactive) | > 30 µM (inactive) | > 30 µM (inactive) | – | > 30 µM (inactive) | > 30 µM (inactive) | > 30 µM (inactive) | > 30 µM (inactive) | > 30 µM (inactive) | > 30 µM (inactive) | 0.012 µM (active) | > 30 µM (inactive) | > 30 µM (inactive) | > 30 µM (inactive)
C=CC(=O)Nc1cc2c(Nc3ccc(F)c(Cl)c3)ncnc2cc1C#CC(C)(C)N1CCN(C)CC1 [AV-412 FREE BASE] | > 30 µM (inactive) | > 30 µM (inactive) | > 30 µM (inactive) | – | > 30 µM (inactive) | > 30 µM (inactive) | > 30 µM (inactive) | > 30 µM (inactive) | > 30 µM (inactive) | > 30 µM (inactive) | > 30 µM (inactive) | > 30 µM (inactive) | 0.345 µM (active) | > 30 µM (inactive)
NC(=O)c1c(OCc2c(F)cc(Br)cc2F)nsc1NC(=O)NCCCCN1CCCC1 [OSI-632] | > 30 µM (inactive) | > 30 µM (inactive) | > 30 µM (inactive) | > 30 µM (inactive) | > 30 µM (inactive) | – | > 30 µM (inactive) | – | – | > 30 µM (inactive) | > 30 µM (inactive) | 0.904 µM (active) | – | –
O=C(Nc1c[nH]nc1-c1nc2cc(CN3CCOCC3)ccc2[nH]1)NC1CC1 [AT-9283] | > 30 µM (inactive) | 0.003 µM (active) | > 30 µM (inactive) | > 30 µM (inactive) | > 30 µM (inactive) | > 30 µM (inactive) | 0.065 µM (active) | – | – | > 30 µM (inactive) | 0.017 µM (active) | 0.03 µM (active) | 0.537 µM (active) | > 30 µM (inactive)
CCn1c(C(=O)N(C2CC2)C2CC2)cc2c3c(ncn3C)c(Nc3cc(C)n(C)n3)nc21 [BMS-911543] | > 30 µM (inactive) | > 30 µM (inactive) | > 30 µM (inactive) | – | > 30 µM (inactive) | > 30 µM (inactive) | > 30 µM (inactive) | > 30 µM (inactive) | > 30 µM (inactive) | > 30 µM (inactive) | > 30 µM (inactive) | > 30 µM (inactive) | > 30 µM (inactive) | > 30 µM (inactive)

From ChEMBL document CHEMBL3991601, “The target landscape of clinical kinase drugs” (Science, 2017)
